Measurements as given in the supplement of paper PMC7600603.

Tests used:
DLD1 NRF2-GOF [1] = details: 72 h; CellTiter-Glo viability
Method in brief: (§1)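 DLD1 colorectal cancer cells, an isogenic pair either NRF2 wild-type or carrying a CRISPR gain-of-function, were cultured in DMEM with 10% FBS and treated in 384-well plates with library compounds at 5 concentrations across a 10,000-fold range. CellTiter-Glo viability was read on a Pherastar FS reader after 72 h and normalised to vehicle wells and 100-μM positive-control wells. Four-parameter logistic dose-response fits were applied. EC50 and drug sensitivity score, a normalised area under the curve, were taken from these fits.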

DLD1 NRF2-WT [2] = details: 72 h; CellTiter-Glo viability
Method in brief: as §1

DLD1 NRF2-GOF [3] = test: TC50 cytotoxicity; higher = less toxic; details: 72 h; CellTox Green cytotoxicity
Method in brief: (§2)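 TC50 and drug sensitivity score, a normalised area under the curve, were derived by logistic dose-response fits of cytotoxicity. The cells were an isogenic DLD1 colorectal cancer pair, NRF2 wild-type or CRISPR-edited, kept in DMEM with 10% FBS. Compounds were tested in 384-well plates at 5 concentrations across a 10,000-fold range for 72 h. Readings with CellTox Green on a Pherastar FS reader were normalised to vehicle wells and 100-μM positive-control wells.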

DLD1 NRF2-WT [4] = test: TC50 cytotoxicity; higher = less toxic; details: 72 h; CellTox Green cytotoxicity
Method in brief: as §2

DLD1 NRF2-GOF [5] = test: drug sensitivity score (DSS) cytotoxicity (DSS score); higher = more toxic; extreme values may be limits of the assay; details: 72 h; CellTox Green cytotoxicity
Method in brief: as §2

DLD1 NRF2-WT [6] = test: as above; details: 72 h; CellTox Green cytotoxicity
Method in brief: as §2

DLD1 NRF2-GOF [7] = test: drug sensitivity score (DSS) viability (DSS score); higher = more sensitive; extreme values may be limits of the assay; details: 72 h; CellTiter-Glo viability
Method in brief: as §1

DLD1 NRF2-WT [8] = test: as above; details: 72 h; CellTiter-Glo viability
Method in brief: as §1

Row | EC50 viability (DLD1 NRF2-GOF [1]) | EC50 viability (DLD1 NRF2-WT [2]) | SMILES | TC50 cytotoxicity (DLD1 NRF2-GOF [3]) | TC50 cytotoxicity (DLD1 NRF2-WT [4]) | drug sensitivity score (DLD1 NRF2-GOF [5]) | drug sensitivity score (DLD1 NRF2-WT [6]) | drug sensitivity score (DLD1 NRF2-GOF [7]) | drug sensitivity score (DLD1 NRF2-WT [8])
1 | 3690 nM | 2440 nM | C=CC(=O)Nc1cccc(Nc2nc(Nc3ccc(N4CCN(C(C)=O)CC4)cc3OC)ncc2C(F)(F)F)c1 [Rociletinib] | > 10000 nM | 3150 nM | 0.7 | 1.5 | 3.1 | 5.3
2 | 323 nM | 202 nM | O=C(/C=C\n1cnc(-c2cc(C(F)(F)F)cc(C(F)(F)F)c2)n1)NNc1cnccn1 [Selinexor] | > 10000 nM | > 10000 nM | 2.5 | 1.5 | 15.5 | 16.7
3 | > 10000 nM | > 10000 nM | COc1cccc2c1c(O)c(C(=O)N(C)c1ccc(C(F)(F)F)cc1)c(=O)n2C [Tasquinimod] | > 10000 nM | > 10000 nM | 0 | 0 | 1.2 | 1.8
4 | 2140 nM | 4210 nM | CN(C)CCOc1ccc(/C(=C(/CCCl)c2ccccc2)c2ccccc2)cc1 [Toremifene] | > 10000 nM | > 10000 nM | 0 | 0 | 4.8 | 2.2
5 | 317 nM | 407 nM | C/C(=C\c1csc(C)n1)[C@@H]1C[C@@H]2O[C@]2(C)CCC[C@H](C)[C@H](O)[C@@H](C)C(=O)C(C)(C)[C@@H](O)CC(=O)N1 [Ixabepilone] | > 1000 nM | 201 nM | 0.5 | 2.4 | 4.2 | 3.5
6 | 1110 nM | 1680 nM | NCCNc1ccc(NCCN)c2c1C(=O)c1ccncc1C2=O [Pixantrone] | > 10000 nM | > 10000 nM | 0 | 0 | 4.9 | 4
7 | 1520 nM | 3600 nM | O=C(O)c1ccc2c(c1)nc(Nc1cccc(Cl)c1)c1ccncc12 [Silmitasertib] | > 10000 nM | > 10000 nM | 0 | 0.3 | 2.8 | 2.1
8 | 50.4 nM | 67 nM | COC[C@H](NC(=O)c1cnc(C)s1)C(=O)N[C@@H](COC)C(=O)N[C@@H](Cc1ccccc1)C(=O)[C@@]1(C)CO1 [Oprozomib] | 116 nM | 56.9 nM | 15.9 | 19.7 | 20.2 | 18.8
9 | 3590 nM | 3040 nM | COc1cc2nccc(Oc3ccc(NC(=O)Nc4cc(C)on4)c(Cl)c3)c2cc1OC [Tivozanib] | 2640 nM | 2920 nM | 4.5 | 2.3 | 2.3 | 3.1
10 | 675 nM | 371 nM | CNC(=O)c1cccc(-c2ccc3c(N4CCOC[C@@H]4C)nc(N4CCOC[C@@H]4C)nc3n2)c1 [Vistusertib] | > 10000 nM | > 10000 nM | 0 | 0 | 9.9 | 11.9
11 | 70.1 nM | 64.9 nM | Cc1[nH]c2ccccc2c1CCNCc1ccc(/C=C/C(=O)NO)cc1 [Panobinostat] | > 1000 nM | 124 nM | 1.1 | 6.6 | 11.2 | 13.3
12 | 2000 nM | 2080 nM | CN(C)C[C@@H]1CCn2cc(c3ccccc32)C2=C(C(=O)NC2=O)c2cn(c3ccccc23)CCO1 [Ruboxistaurin] | > 10000 nM | > 10000 nM | 0.2 | 0 | 5 | 5.1

The remaining lines, values behind:

Row | SMILES | EC50 viability (DLD1 NRF2-GOF [1]) | EC50 viability (DLD1 NRF2-WT [2]) | TC50 cytotoxicity (DLD1 NRF2-GOF [3]) | TC50 cytotoxicity (DLD1 NRF2-WT [4]) | drug sensitivity score (DLD1 NRF2-GOF [5]) | drug sensitivity score (DLD1 NRF2-WT [6]) | drug sensitivity score (DLD1 NRF2-GOF [7]) | drug sensitivity score (DLD1 NRF2-WT [8])
13 | CCCCCCCCc1ccc(CCC(N)(CO)CO)cc1 [Fingolimod] | 2580 nM | 3220 nM | 2730 nM | 2420 nM | 6.4 | 5.6 | 6.7 | 5.5
14 | COc1cc(Nc2c(C#N)cnc3cc(OCCCN4CCN(C)CC4)c(OC)cc23)c(Cl)cc1Cl [Bosutinib] | 1480 nM | 1220 nM | 3430 nM | 3500 nM | 3.1 | 3.8 | 9.3 | 10
15 | Cc1cc(Nc2cc(CN3CCOCC3)c3nc(C)c(Cc4ccc(Cl)cc4F)n3n2)n[nH]1 [Gandotinib] | 2090 nM | 2280 nM | 1620 nM | 1890 nM | 6.1 | 2.8 | 6.2 | 5
16 | O=C(NC[C@H](O)CN1CCc2ccccc2C1)c1cc(NC2COC2)ncn1 | > 10000 nM | > 10000 nM | > 10000 nM | > 10000 nM | 0 | 0 | 2.4 | 3
17 | COc1cc2nccc(Oc3ccc(NC(=O)C4(C(=O)Nc5ccc(F)cc5)CC4)cc3)c2cc1OC [Cabozantinib] | > 1000 nM | > 1000 nM | > 1000 nM | > 1000 nM | 0 | 0 | 1.1 | 0
18 | CC(=O)[C@]1(O)Cc2c(O)c3c(c(O)c2[C@@H](O[C@H]2C[C@H](N)[C@H](O)[C@H](C)O2)C1)C(=O)c1ccccc1C3=O [Idarubicin] | 96.9 nM | 45.2 nM | 219 nM | 150 nM | 2.4 | 4.8 | 10 | 14.2
19 | O=C(NCc1ccncc1)C12CC3CC(C1)CC(c1ccc(Cl)cc1)(C3)C2 | 4090 nM | 5140 nM | > 50000 nM | > 50000 nM | 0.3 | 0 | 9 | 8.7
20 | COc1cc(OC)cc(N(CCNC(C)C)c2ccc3ncc(-c4cnn(C)c4)nc3c2)c1 [Erdafitinib] | 133 nM | 42.1 nM | > 1000 nM | > 1000 nM | 0 | 0 | 6 | 5.9
21 | CN(C)Cc1c(C(=O)NCCOc2ccc(C(=O)NO)cc2)oc2ccccc12 [Abexinostat] | 832 nM | 582 nM | > 10000 nM | 1250 nM | 0.7 | 7.5 | 10.4 | 14
22 | CN[C@@H](C)C(=O)N[C@H]1CN(C(=O)CC(C)C)CC[C@H]2CC[C@@H](C(=O)NC(c3ccccc3)c3ccccc3)N2C1=O [AT-406] | 885 nM | > 10000 nM | > 10000 nM | > 10000 nM | 0 | 0 | 2.6 | 0
23 | C[C@H]1C=C2C(=O)O[C@H]3CC[C@@H](C1)[C@@]23O [Galiellalactone] | 414 nM | > 25000 nM | > 25000 nM | > 25000 nM | 0 | 0 | 5.1 | 2.8
24 | CCCc1cc(C)[nH]c(=O)c1CNC(=O)c1cc(-c2ccnc(N3CCN(C)CC3)c2)cc2c1cnn2C(C)C [GSK343] | > 1000 nM | > 1000 nM | > 1000 nM | > 1000 nM | 0 | 0 | 0 | 0
25 | CN(C)C/C=C/C(=O)Nc1cc2c(Nc3ccc(F)c(Cl)c3)ncnc2cc1O[C@H]1CCOC1 [Afatinib] | 145 nM | 148 nM | > 1000 nM | > 1000 nM | 0 | 0 | 2.9 | 3.3
26 | CC(C)(C)c1nc(-c2cccc(NS(=O)(=O)c3c(F)cccc3F)c2F)c(-c2ccnc(N)n2)s1 [Dabrafenib] | > 2500 nM | 993 nM | > 2500 nM | > 2500 nM | 0 | 0 | 0.6 | 1.4
27 | COc1cc2c(Oc3ccc(NC(=O)C4(C(=O)Nc5ccc(F)cc5)CC4)cc3F)ccnc2cc1OCCCN1CCOCC1 [Foretinib] | 361 nM | 414 nM | 267 nM | 280 nM | 6.3 | 3.2 | 3.3 | 2.1
28 | COc1cc2c(cc1OCCCN1CCCC1)N=C(N)C21CCC1 [A-366] | > 25000 nM | > 25000 nM | > 25000 nM | > 25000 nM | 0 | 0 | 0 | 0
29 | C=CC(=O)Nc1cc2c(Nc3ccc(F)c(Cl)c3)ncnc2cc1OCCCN1CCOCC1 [Canertinib] | 2520 nM | 1970 nM | 3210 nM | 2390 nM | 5.5 | 7.1 | 6.8 | 8.1
30 | O=C(/C=C/c1cccc(S(=O)(=O)Nc2ccccc2)c1)NO [Belinostat] | 1260 nM | 1100 nM | > 10000 nM | 1530 nM | 0 | 2.6 | 7.1 | 9.9
31 | O=C1c2c(O)ccc(O)c2C(=O)c2c(NCCNCCO)ccc(NCCNCCO)c21 [Mitoxantrone] | 96.9 nM | 67.4 nM | > 1000 nM | > 1000 nM | 0 | 0 | 10.1 | 12.3
32 | CN1CCN(C2CCN(C(=O)Nc3cc(Oc4ccc(NC(=O)C5(C(=O)Nc6ccc(F)cc6)CC5)c(F)c4)ccn3)CC2)CC1 [Golvatinib] | > 2500 nM | > 2500 nM | > 2500 nM | > 2500 nM | 0 | 0 | 0 | 1.2
